Here are results for 4 compounds from US20250304582A1, “Bicyclic Ureas As Kinase Inhibitors” (Incyte Corporation, priority 2024, published 2025).

The structures appear in SMILES notation.

The target in assay [1] is T1, catalytic domain (JH1, amino acids 826-1132) of human JAK2 (Homo sapiens, UniProt O60674).
T1 construct: catalytic domain (JH1, amino acids 826-1132) of human JAK2; FLAG (N); purchased Carna Biosciences 08-445-20N; host or cells: baculovirus expression system
As to the kind of experiment: JAK2 LanthaScreen JH1 Binding Assay. The note with it: 50 nM fluorescent JAK2-JH1 tracer, 2 hours at 25° C.; read-out: JH1 BIND (EX. A). The procedure, abridged:
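FLAG-tagged biotinylated JAK2 JH1 (1.5 nM) was incubated 2 h at 25° C with compound, 50 nM fluorescent tracer and 0.5 nM Streptavidin-Tb in Tris pH 7.5 buffer. Tracer displacement read by TR-FRET; nonspecific binding defined with 2 mM ATP. IC50 from four-parameter fit.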

Assay [2] deals with T2, pseudo-kinase domain (JH2, amino-acids 536-812) of human Wild Type JAK2 (Homo sapiens, UniProt O60674, F794H/W659A/W777A).
T2 construct: JH2, amino-acids 536-812 with 3 surface mutations W659A, W777A, F794H; His (C); purchased BPS Bioscience 79463; host or cells: baculovirus expression system
As to the kind of experiment: JAK2 LanthaScreen JH2-WT Binding Assay. The note with it: 50 nM Fluorescent JAK2-JH2 Tracer, 1 hour at 25° C.; read-out: JH2 BIND WT (EX. B). The essentials: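 JH2 domain (0.145 nM; His-Avi-tagged, biotinylated, baculovirus-expressed) incubated 1 h at 25° C. with compounds, 50 nM fluorescent JH2 tracer and 0.25 nM streptavidin-Tb in pH 7.5 Tris buffer with MgCl2, EGTA, DTT. Non-specific binding defined with 2 mM ATP. TR-FRET tracer displacement read; IC50 from four-parameter fit.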
On the technique in general: Time-resolved FRET reads energy transfer from a long-lived donor to a nearby acceptor.

For assay [3], the target named is T3, pseudo-kinase domain (JH2, amino-acids 536-812) of human V617F mutant JAK2 (Homo sapiens, UniProt O60674, F794H/V617F/W659A/W777A).
T3 construct: JH2, amino-acids 536-812 with 3 surface mutations W659A, W777A, F794H; His (C); purchased BPS Bioscience 79498; host or cells: baculovirus expression system
Put plainly: JAK2 LanthaScreen JH2-V617F Binding Assay. The note with it: 50 nM Fluorescent JAK2-JH2 Tracer, 1 hour at 25° C.; read-out: JH2 BIND V617F (Ex. C). The procedure, abridged:
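Biotinylated His-Avi-tagged JH2 construct (536-812, W659A/W777A/F794H) at 0.26 nM, with 50 nM fluorescent JH2 tracer and 0.25 nM streptavidin-Tb, in pH 7.5 Tris/MgCl2 buffer; 1 h at 25° C. Non-specific binding defined with 2 mM ATP. IC50 derived from TR-FRET signal by four-parameter dose-response fit.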

In assay [4] the target is T4, catalytic domain (JH1, amino acids 808-1132) of human JAK2 (Homo sapiens, UniProt O60674).
T4 construct: catalytic domain (JH1, amino acids 808-1132) of human JAK2; His (N); purchased BPS Bioscience 40450; host or cells: baculovirus expression system
As to the kind of experiment: JAK2 HTRF Enzyme Activity Assay. Type of assay: biochemical. The note with it: ATP (30 μM or 1 mM; not stated which for the table), 60 minutes at 25° C.; read-out: JAK2 HTRF (Ex. D). The procedure, abridged: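 N-terminal His-tagged, baculovirus-expressed JH1 domain (0.015 nM) reacts 60 min at 25 °C with 500 nM biotinylated peptide and 30 μM or 1 mM ATP in Tris pH 7.5/10 mM MgCl2. Phosphorylation is detected by HTRF with Eu-anti-phosphotyrosine (PY20) and streptavidin-APC after EDTA stop. IC50 comes from four-parameter fits.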

T4 sequence (O60674 808-1132): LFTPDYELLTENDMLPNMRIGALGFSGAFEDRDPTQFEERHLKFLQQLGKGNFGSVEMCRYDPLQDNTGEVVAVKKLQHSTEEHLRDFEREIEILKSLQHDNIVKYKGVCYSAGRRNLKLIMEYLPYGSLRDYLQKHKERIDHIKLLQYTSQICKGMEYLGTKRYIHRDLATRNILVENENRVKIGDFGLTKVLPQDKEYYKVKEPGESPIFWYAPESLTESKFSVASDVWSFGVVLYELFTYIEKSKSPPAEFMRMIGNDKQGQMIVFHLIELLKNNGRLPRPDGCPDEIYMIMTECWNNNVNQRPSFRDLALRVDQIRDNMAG
T1 sequence (O60674 826-1132): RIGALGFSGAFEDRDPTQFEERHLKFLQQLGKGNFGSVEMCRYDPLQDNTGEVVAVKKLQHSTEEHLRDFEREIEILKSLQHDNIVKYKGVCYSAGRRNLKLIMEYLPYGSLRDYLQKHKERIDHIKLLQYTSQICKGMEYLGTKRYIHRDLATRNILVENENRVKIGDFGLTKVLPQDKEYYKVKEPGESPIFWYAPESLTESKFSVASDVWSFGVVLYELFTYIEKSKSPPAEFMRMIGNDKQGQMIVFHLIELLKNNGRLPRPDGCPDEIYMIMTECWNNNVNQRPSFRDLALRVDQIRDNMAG
T3 sequence (O60674 536-812 V617F/W659A/W777A/F794H): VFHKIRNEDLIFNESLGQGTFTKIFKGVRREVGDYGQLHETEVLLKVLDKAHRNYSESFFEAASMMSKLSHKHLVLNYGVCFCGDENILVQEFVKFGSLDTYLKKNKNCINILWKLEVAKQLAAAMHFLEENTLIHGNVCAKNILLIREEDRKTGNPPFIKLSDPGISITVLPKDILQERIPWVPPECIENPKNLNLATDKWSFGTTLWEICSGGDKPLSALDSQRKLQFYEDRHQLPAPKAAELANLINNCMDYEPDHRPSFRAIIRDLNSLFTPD
T2 sequence (O60674 536-812 W659A/W777A/F794H): as the sequence (O60674 536-812 V617F/W659A/W777A/F794H) above, with F82V counted along it

Regarding `COC(=O)N[C@@H]1CC[C@@H](n2c(=O)n(C)c3cnc(Nc4ccc5cccc(C#N)c5n4)cc32)C1` [Example 43, Methyl ((1R,3R)-3-(6-((8-cyanoquinolin-2-yl)amino)-3-methyl-2-oxo-2,3-dihydro-1H-imidazo[4,5-c]pyridin-1-yl)cyclopentyl)carbamate], the IC50 in assay [1] was above 1000 nM; in assay [2] it was at most 10 nM; in assay [3] it was at most 10 nM; in assay [4] it was above 1000 nM.
For `COC(=O)N[C@@H]1CC[C@@H](n2c(=O)n(C)c3cnc(Nc4ccc5ccc(C#N)cc5n4)cc32)C1` [Example 44, Methyl ((1R,3R)-3-(6-((7-cyanoquinolin-2-yl)amino)-3-methyl-2-oxo-2,3-dihydro-1H-imidazo[4,5-c]pyridin-1-yl)cyclopentyl)carbamate], the IC50 in assay [1] is above 1000 nM; in assay [2], 100 to 500 nM; in assay [3], 100 to 500 nM; in assay [4], above 1000 nM.
Consider `COC(=O)N[C@@H]1CC[C@@H](n2c(=O)n(C)c3cnc(Nc4ccc5cc(C#N)ccc5n4)cc32)C1` [Example 45, Methyl ((1R,3R)-3-(6-((6-cyanoquinolin-2-yl)amino)-3-methyl-2-oxo-2,3-dihydro-1H-imidazo[4,5-c]pyridin-1-yl)cyclopentyl)carbamate], for which the IC50 in assay [1] is above 1000 nM; in assay [2] it was 10 to 100 nM; in assay [3], 100 to 500 nM; in assay [4] it was above 1000 nM.
For `[2H]C([2H])([2H])n1c(=O)n([C@@H]2CC[C@@H](NC(=O)OC)C2)c2cc(Nc3ccc4c(C(C)(C)O)ccc(C(F)(F)F)c4n3)ncc21` [Example 47, Methyl ((1R,3R)-3-(6-((5-(2-hydroxypropan-2-yl)-8-(trifluoromethyl)quinolin-2-yl)amino)-3-(methyl-d3)-2-oxo-2,3-dihydro-1H-imidazo[4,5-c]pyridin-1-yl)cyclopentyl)carbamate], the IC50 was above 1000 nM in assay [1], at most 10 nM in assay [2], at most 10 nM in assay [3] and above 1000 nM in assay [4].
